Laboratory results taken from patent publication US11059815B2, “Synthesis of small molecule histone deacetylase 6 degraders, compounds formed thereby, and pharmaceutical compositions containing them” (Wisconsin Alumni Research Foundation, priority 2018, dated 2021).
Each block holds one molecule with its values, some of them ahead of it.

Columns and labels:
HDAC6 [1] = target: T1, HDAC6 (Homo sapiens, UniProt Q9UBN7); test: In-cell ELISA of HDAC6 protein level in MM1S cells; format: cell-based; conditions: 1 nM to 3 μM, 6 h
T1 construct: an in-cell ELISA was used to analyze the HDAC6 content in MM1S cells; endogenous in cells; host or cells: MM1S (ATCC CRL-2974)
T1 sequence (Q9UBN7 1-1215): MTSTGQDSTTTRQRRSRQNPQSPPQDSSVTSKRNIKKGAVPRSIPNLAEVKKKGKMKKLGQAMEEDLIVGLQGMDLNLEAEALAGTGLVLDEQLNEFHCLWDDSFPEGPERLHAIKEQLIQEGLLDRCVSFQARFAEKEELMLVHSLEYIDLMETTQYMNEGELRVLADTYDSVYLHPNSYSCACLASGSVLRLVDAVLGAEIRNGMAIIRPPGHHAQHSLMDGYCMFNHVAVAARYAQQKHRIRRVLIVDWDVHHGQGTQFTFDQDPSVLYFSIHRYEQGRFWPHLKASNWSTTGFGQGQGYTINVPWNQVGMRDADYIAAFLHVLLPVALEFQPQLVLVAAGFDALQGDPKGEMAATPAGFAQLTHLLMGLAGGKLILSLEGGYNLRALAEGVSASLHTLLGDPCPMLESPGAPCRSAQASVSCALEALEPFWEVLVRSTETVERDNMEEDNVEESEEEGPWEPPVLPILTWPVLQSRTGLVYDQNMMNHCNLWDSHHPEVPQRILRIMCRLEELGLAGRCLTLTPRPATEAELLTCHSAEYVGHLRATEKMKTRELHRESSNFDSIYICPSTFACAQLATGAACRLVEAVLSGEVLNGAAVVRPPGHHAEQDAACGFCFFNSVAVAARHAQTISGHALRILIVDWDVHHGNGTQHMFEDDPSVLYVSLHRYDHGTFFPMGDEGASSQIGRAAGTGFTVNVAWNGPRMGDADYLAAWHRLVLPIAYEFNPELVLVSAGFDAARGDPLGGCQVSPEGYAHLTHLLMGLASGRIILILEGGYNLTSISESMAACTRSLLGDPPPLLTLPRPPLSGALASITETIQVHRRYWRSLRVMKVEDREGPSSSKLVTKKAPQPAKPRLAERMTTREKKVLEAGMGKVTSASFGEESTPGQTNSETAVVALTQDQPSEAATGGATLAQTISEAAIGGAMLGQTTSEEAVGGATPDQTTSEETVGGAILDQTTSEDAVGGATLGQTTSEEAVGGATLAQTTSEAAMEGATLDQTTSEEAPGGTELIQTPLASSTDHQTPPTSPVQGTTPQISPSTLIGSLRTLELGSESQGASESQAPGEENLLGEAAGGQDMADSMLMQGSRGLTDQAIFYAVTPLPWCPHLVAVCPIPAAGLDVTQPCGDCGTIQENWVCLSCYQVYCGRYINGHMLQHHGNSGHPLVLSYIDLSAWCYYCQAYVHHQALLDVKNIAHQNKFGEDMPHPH

HDAC6 [2] = target: T1, HDAC6; test: Immunoblot of HDAC6 degradation in MM.1S cells (second generation degraders); format: cell-based; conditions: 6 nM
Protocol: FIG. 6A: Immunoblot showing degradation activity of 18x, 18a, and 18b against HDAC1, HDAC2, HDAC4, and HDAC6 (with β-actin as a control) at serial dilutions of 10 μM, 1 μM, and 100 nM.
FIG. 6B: Immunoblot showing degradation activity of 20a, 20b, 20c, 18c, 18a, and 18b against HDAC4 and HDAC6 (with α-tubulin as a control) at dilutions of 5 nM and 1 nM.
FIG. 6C: Immunoblot showing degradation activity of 18b and 9C against HDAC1, HDAC2, HDAC4, HDAC6, and HDAC8 (with β-actin as a control) at dilutions of 6, 19, 56, 167, and 500 nM.
Some of these HDAC6 degraders could degrade HDAC6 selectively at low nM concentrations in MM.
(§1) When the cells reached 90% confluence, they were harvested and plated 1×10^6 cells per well in 6-well plate. After overnight seeding, the cells were treated with a solution of compounds or vehicle in culture medium. The culture medium was removed after treatment and then washed twice with cold PBS. […] Protein concentration was measured by using the Pierce BCA protein assay (Thermo Fisher Scientific). […] The Immunoblot was generated by ChemiDoc MP Imaging Systems (Bio-Rad) and analyzed by Image J software (only available for download online at https://imagej.net/Downloads). […]

acetylated histone H3 = test: Western blot of acetylated histone H3 in MM1S cells; format: cell-based, human
Text: FIGS. 12A, 12B, and 12C are a series of western blots showing that degrader 12d selectively promotes HDAC6 degradation in MM1S cells.
To further examine the selectivity of the new generation of HDAC6 degraders, compound 12d was compared to SAHA, Next-A, degrader 1 and pan-inhibitor 2 for change of acetylated a-tubulin and acetylated histone H3.
When the cells reached 90% confluence, they were harvested and plated 1×10^6 cells per well in 6-well plate. After overnight seeding, the cells were treated with a solution of compounds or vehicle in culture medium. The culture medium was removed after treatment and then washed twice with cold PBS. To obtain whole cell lysate, all cells were treated with RIPA lysis buffer (25 mM Tris, pH 7-8, 150 mM NaCl, 0.1% SDS, 0.5% sodium deoxycholate, 1% Triton X-100, protease inhibitor cocktail (Roche, 1 tablet per 10 mL) and 1 mM PMSF) on ice for 10 minutes. Supernatant was collected after spinning down at 16,000 g at 4° C. for 15 minutes. Protein concentration was measured by using the Pierce BCA protein assay (Thermo Fisher Scientific). […] The Immunoblot was generated by ChemiDoc MP Imaging Systems (Bio-Rad) and analyzed by Image J software (only available for download online at https://imagej.net/Downloads). […]

Caspase-3 and PARP = test: Cleavage of Caspase-3 and PARP in MM1S; format: cell-based, human; conditions: 48 h treatment, data not shown
Protocol: Single treatment or co-treatment was performed as combined therapy (1 μM) for 72 hours in MM1S cells. […] However, the single treatment of 12d improved about 19% (P=0.0017) and 11% (P=0.0213) growth inhibition comparing with the combination sets of 13+15 (1:1) and pomalidomide+Next-A (1:1), respectively. To further confirm the observed enhancement, the anti-proliferation in response to 12d was studied from 0.3 nM to 3 μM. This single treatment was compared with dual treatment of 13 and 15 to rule out the potential complication derived from cell permeability issue. Degrader 12d lowered the bottom line (minimal proliferation) of curve over 20% although its IC50 was […] consequentially.
as §1

DC50 (HDAC6 [1]; read-out: DC50 (Part 2)): 2.2 nM | Dmax (HDAC6 [1]; MM1.S, read-out: Dmax (Part 2)): 85.6%
Compound: CCCCN(Cc1ccc(C(=O)NO)cc1)C(=O)Nc1ccc(OCCCCCn2cc(CNc3cccc4c3C(=O)N(C3CCC(=O)NC3=O)C4=O)nn2)cc1 (centres unmarked) [Compound 2]

HDAC6 depletion (HDAC6 [2]): completely depleted
Compound: CCCCN(Cc1ccc(C(=O)NO)cc1)C(=O)Nc1ccc(OCCCn2cc(CNc3ccc4c(c3)C(=O)N(C3CCC(=O)NC3=O)C4=O)nn2)cc1 (centres unmarked) [Compound 12m, 4-((1-butyl-3-(4-(3-(4-(((2-(2,6-dioxopiperidin-3-yl)-1,3-dioxoisoindolin-5-yl)amino)methyl)-1H-1,2,3-triazol-1-yl)propoxy)phenyl)ureido)methyl)-N-hydroxybenzamide]

cleavages of Caspase-3 and PARP (Caspase-3 and PARP): dose-dependent
Compound: CCCCN(Cc1ccc(C(=O)NO)cc1)C(=O)Nc1ccc(OCCCCCn2cc(CNc3cccc4c3C(=O)N(C3CCC(=O)NC3=O)C4=O)nn2)cc1 (centres unmarked) [Compound 12d, 4-((1-butyl-3-(4-((5-(4-(((2-(2,6-dioxopiperidin-3-yl)-1,3-dioxoisoindolin-4-yl)amino)methyl)-1H-1,2,3-triazol-1-yl)pentyl)oxy)phenyl)ureido)methyl)-N-hydroxybenzamide]
change of acetylated histone H3 (acetylated histone H3): No increase
